How the values were obtained:
[1] = biological target: T1, Thromboxane A2 receptor (Homo sapiens, UniProt P21731); experiment: Binding affinity was determined for Thromboxane A2 receptor in human platelet membrane in presence of [3H]-SQ-29,548 radioligand; assay type: cell membranes
T1 sequence (P21731 whole entry): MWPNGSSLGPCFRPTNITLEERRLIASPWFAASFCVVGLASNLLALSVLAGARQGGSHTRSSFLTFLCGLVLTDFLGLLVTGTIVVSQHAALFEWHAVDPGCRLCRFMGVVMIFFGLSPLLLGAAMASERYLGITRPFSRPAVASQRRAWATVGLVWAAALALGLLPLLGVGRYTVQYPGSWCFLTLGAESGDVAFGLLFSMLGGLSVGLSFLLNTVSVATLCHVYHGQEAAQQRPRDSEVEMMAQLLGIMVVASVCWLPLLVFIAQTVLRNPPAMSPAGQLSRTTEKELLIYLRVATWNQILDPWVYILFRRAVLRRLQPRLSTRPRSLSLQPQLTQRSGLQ

[2] = species on record: Homo sapiens; experiment: Inhibition of arachidonic acid-induced and ADP-induced platelet aggregation of human platelet rich plasma; assay type: functional; conditions: read-out: I50

IC50 ([2]; Homo sapiens, Plasma) [µM] | SMILES | other results
 | O=C(O)CCc1ccccc1CN1CCCC1c1nc(C(=O)NCCCCC2CCCCC2)co1 (stereo not drawn) | Kd [1]: 0.011 µM
1.7 | O=C(O)CCc1ccccc1CN1CCC[C@@H]1c1nc(C(=O)NCCCCC2CCCCC2)co1 | 
0.019 | O=C(O)CCc1ccccc1CN1CCC[C@H]1c1nc(C(=O)NCCCCC2CCCCC2)co1 | 
0.019 | O=C(O)CCc1ccccc1C(=O)N1CCC[C@H]1c1nc(C(=O)NCCCCC2CCCCC2)co1 | 
23 | O=C(O)CCc1ccccc1CN1C(=O)CCC1c1nc(C(=O)NCCCCC2CCCCC2)co1 (stereo not drawn) | 
3.7 | O=C(O)CCc1ccccc1C(=O)N1[C@@H](O)CC[C@H]1c1nc(C(=O)NCCc2ccc(Cl)cc2)co1 | 
 | O=C(O)CCc1ccccc1C(=O)N1c2ccccc2CC1c1nc(C(=O)NCCc2ccc(Cl)cc2)co1 (single isomer, unassigned; (+)) | IC50 [2]: 0.25 µM
 | O=C(O)CCc1ccccc1C(=O)N1c2ccccc2CC1c1nc(C(=O)NCCc2ccc(Cl)cc2)co1 (single isomer, unassigned; (-)) | IC50 [2]: 3.7 µM

From ChEMBL document CHEMBL1126504, “Synthesis of pyrrolidine oxazoles as thromboxane A2/endoperoxide receptor antagonists” (Bioorg Med Chem Lett, 1993)
